Active and inactive are the calls of the source.
Experiments:
[1] = target: Nonstructural protein 1 (Influenza A virus, UniProt Q194T2); format: functional, Influenza A virus (A/California/07/2009(H1N1))
[2] = target: T1, Long-chain-fatty-acid--AMP ligase FadD28 (Mycobacterium tuberculosis, UniProt P9WQ59); experiment: Fluorescence polarization aasay to screen for inhibitors that compete for the binding of FadD28 to a bisubstrate Measured in Biochemical System Using Plate Reader - 2147-01_Inhibitor_Dose_CherryPick_Activity.; format: functional, Mycobacterium tuberculosis H37Rv
T1 sequence (P9WQ59 whole entry): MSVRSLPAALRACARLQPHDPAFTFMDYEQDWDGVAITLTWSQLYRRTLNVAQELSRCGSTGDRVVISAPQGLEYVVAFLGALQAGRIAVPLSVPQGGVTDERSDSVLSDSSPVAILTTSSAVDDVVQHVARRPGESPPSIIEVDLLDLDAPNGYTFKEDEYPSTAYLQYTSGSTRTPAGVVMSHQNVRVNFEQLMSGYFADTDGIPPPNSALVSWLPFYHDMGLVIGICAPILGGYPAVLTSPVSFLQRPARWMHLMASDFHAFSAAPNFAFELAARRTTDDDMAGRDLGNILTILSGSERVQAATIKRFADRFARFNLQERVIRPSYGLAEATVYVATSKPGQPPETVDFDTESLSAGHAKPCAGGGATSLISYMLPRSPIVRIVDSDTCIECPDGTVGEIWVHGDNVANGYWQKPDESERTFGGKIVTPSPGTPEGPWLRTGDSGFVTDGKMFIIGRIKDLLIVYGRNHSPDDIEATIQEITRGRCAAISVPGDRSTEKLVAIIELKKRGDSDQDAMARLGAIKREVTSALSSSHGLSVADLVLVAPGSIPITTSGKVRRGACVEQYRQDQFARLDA

[3] = P. falciparum Dd2 growth inhibitors, dose response, SYBR Green, dry powder samples (AID 1159566); format: functional, cell-based;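 also: potency for growth inhibition with lower SYBR green DNA signal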
[4] = P. falciparum ATP4 D1247Y mutant growth inhibitors, dose response, NITD609-resistant line, SYBR Green, dry powder (AID 1159571); format: functional, cell-based;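 also: parasites synchronized at ring stage by sorbitol before testing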
[5] = P. falciparum 3D7-ScDHODH growth inhibitors, dose response, SYBR Green, dry powder samples (AID 1159570); format: functional, cell-based;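 also: parasite growth measured after 72 hours of compound exposure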
[6] = P. falciparum Dd2 growth inhibitors, dose response, SYBR Green, cherry-picked samples (AID 1159567); format: functional, cell-based
[7] = A Cell Based Secondary Assay To Explore Cytotoxicity of Compounds that Sensitize Mycobacterium Tuberculosis to Beta-Lactam Antibiotics.; format: functional
[8] = A cytotoxicity screen of small molecule inhibitors of the PhoP region in Salmonella typhi identified in the primary screen. [Related pubchem assays: 1850, 1864, 1985 ]; format: functional
[9] = target: T2, Polyadenylate-binding protein 1 (Homo sapiens, UniProt P11940); experiment: PABP1 MLLE–PAM2 binding inhibitor potency, dose response, biochemical, fluorescence polarization, FITC-PAM2 peptide (AID 602259); format: functional; settings: read-out: IC50_Mean
T2 sequence (P11940 whole entry): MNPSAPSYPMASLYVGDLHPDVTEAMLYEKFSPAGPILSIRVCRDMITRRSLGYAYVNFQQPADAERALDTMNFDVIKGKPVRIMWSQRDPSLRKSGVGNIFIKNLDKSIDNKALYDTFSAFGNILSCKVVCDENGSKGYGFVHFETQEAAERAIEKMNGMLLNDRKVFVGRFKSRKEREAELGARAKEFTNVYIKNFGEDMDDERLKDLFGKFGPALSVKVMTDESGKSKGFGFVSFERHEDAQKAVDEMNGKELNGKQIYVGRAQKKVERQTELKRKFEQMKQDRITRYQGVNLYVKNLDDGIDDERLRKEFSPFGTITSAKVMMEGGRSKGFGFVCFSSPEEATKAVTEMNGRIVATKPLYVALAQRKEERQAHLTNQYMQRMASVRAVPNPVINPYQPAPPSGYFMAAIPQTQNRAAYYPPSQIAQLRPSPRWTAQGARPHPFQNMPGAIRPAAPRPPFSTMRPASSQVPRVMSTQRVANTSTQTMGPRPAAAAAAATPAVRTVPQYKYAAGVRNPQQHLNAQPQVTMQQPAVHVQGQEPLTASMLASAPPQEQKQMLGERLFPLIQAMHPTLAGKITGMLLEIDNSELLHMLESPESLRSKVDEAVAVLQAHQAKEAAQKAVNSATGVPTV

[10] = target: T2, Polyadenylate-binding protein 1; experiment: PABP1 MLLE–PAM2 interaction inhibitors, dose response, miRNA deadenylation inhibitor project, biochemical, fluorescence polarization, Cy5-PAM2 peptide, secondary (AID 602260); format: functional; settings: read-out: IC50_Mean
[11] = target: T3, Short transient receptor potential channel 4 (Mus musculus, UniProt Q9QUQ5); experiment: mouse TRPC4 channel activators, dose response, cell-based, HEK293 TRPC4/mu-opioid, Fluo-4 calcium (AID 434937); format: functional
T3 sequence (Q9QUQ5 whole entry): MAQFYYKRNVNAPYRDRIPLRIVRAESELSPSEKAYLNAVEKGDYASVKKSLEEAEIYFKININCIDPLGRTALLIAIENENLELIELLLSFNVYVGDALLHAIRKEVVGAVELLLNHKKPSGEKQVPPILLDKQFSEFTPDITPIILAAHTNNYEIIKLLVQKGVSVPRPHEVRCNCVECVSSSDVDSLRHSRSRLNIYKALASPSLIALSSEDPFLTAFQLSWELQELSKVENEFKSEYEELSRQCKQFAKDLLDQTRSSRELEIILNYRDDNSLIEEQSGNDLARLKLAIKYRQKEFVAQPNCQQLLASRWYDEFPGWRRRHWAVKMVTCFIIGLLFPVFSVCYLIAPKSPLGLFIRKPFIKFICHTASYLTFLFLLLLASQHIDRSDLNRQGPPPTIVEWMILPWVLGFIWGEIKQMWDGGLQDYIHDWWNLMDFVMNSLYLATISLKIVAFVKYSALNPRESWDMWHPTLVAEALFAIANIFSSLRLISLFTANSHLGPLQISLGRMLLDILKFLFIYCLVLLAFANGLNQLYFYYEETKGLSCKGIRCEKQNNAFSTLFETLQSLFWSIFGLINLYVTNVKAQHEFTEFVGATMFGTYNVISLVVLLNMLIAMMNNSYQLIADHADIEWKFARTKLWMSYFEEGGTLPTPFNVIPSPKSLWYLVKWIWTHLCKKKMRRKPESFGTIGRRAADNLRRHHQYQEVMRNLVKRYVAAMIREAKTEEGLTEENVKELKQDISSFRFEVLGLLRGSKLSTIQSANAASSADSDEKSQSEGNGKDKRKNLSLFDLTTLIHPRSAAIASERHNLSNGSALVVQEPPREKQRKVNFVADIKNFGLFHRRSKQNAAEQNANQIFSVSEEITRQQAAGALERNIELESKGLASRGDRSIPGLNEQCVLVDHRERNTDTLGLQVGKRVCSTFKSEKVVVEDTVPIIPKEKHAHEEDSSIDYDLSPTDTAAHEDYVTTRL

[12] = target: T3, Short transient receptor potential channel 4; experiment: mouse TRPC4 channel inhibitors, dose response, cell-based, HEK293 TRPC4/mu-opioid, Fluo-4 calcium (AID 434942); format: functional;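 also: potency of inhibitors blocking the TRPC4 calcium response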
[13] = target: T4, Neuropeptides B/W receptor type 1 (Homo sapiens, UniProt P48145); experiment: Fluorescence-based dose response cell-based high throughput screening assay to identify antagonists of the G-protein coupled receptor 7 (GPR7). [Related pubchem assays: 1952 (Screening assay (GPR7 antagonists).), 1880 (Summary AID.)]; format: functional
T4 sequence (P48145 whole entry): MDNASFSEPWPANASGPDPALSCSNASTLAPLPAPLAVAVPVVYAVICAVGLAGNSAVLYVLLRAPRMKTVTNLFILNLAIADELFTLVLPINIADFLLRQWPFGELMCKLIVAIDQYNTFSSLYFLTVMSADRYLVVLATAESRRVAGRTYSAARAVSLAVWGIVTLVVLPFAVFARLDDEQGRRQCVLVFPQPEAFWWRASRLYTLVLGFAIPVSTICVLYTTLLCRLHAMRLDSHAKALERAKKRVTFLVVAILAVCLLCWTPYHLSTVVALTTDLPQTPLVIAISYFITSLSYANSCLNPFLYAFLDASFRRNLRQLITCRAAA

[14] = target: Melanin-concentrating hormone receptor 1 (Homo sapiens, UniProt Q99705); experiment: Fluorescence-based counterscreen for antagonists of the G-protein coupled receptor 7 (GPR7): cell-based high throughput dose response assay to identify antagonists of the melanin-concentrating hormone receptor 1 (MCHR1).; format: functional
Sequence of Melanin-concentrating hormone receptor 1 (Q99705 whole entry): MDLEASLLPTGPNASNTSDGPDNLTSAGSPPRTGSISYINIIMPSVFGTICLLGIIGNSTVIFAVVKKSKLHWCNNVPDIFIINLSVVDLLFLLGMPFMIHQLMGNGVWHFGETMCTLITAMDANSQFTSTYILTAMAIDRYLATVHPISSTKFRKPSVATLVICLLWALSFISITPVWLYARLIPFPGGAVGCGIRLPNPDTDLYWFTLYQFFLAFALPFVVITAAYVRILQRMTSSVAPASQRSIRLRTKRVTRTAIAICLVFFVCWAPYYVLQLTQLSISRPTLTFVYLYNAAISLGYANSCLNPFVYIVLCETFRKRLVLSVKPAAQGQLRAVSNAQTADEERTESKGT

Sequence of Nonstructural protein 1 (Q194T2 whole entry): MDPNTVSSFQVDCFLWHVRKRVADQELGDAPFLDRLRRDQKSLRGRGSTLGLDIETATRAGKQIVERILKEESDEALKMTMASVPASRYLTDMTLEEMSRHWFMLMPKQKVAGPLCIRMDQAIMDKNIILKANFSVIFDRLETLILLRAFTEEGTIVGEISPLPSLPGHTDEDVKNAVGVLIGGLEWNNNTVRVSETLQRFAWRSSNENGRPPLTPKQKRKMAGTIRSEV

Structure (SMILES): O=C(NN1C(=O)/C(=C/c2nc3ccccc3[nH]2)SC1=S)c1ccccc1
- IC50 [1]: > 100 µM (active)
- AC50 [2]: 70.5 µM (active)

Structure (SMILES): CC(C)(C)[S+]([O-])N1Cc2cc(C(=O)NCc3ccc(Oc4ccccc4)cc3)nc(-c3cccc(-c4cccc(F)c4)c3)c2[C@@H]1CCO (stereo partly drawn)
- AC50 [3]: 0.658 µM (active)
- AC50 [4]: 0.417 µM (active)
- AC50 [5]: 0.831 µM (active)
- AC50 [6]: 1.23 µM (active)

Structure (SMILES): C=CCc1cc(Cl)ccc1OCCCNC(C)CC (stereo not drawn)
- CC50 [7]: > 40 µM (active)

Structure (SMILES): c1cc(N2CCCC2)ccc1C(c1nnnn1C1CCCCC1)N1CCOCC1 (stereo not drawn)
- EC50 [8]: > 50 µM (active)

Structure (SMILES): Nc1c(-c2ccccc2)sc2ccc3ccccc3[n+]12
- EC50 [8]: > 50 µM (active)
- IC50 [9]: > 66 µM (inactive)
- IC50 [10]: > 66 µM (inactive)

Structure (SMILES): CC1CCCN(CCOCCOc2ccccc2-c2ccccc2)C1 (stereo not drawn)
- EC50 [11]: 0.421 µM (active)
- EC50 [12]: 0.335 µM (active)

Structure (SMILES): Cc1ccnc(NC(=O)CCC(=O)N(CC(=O)NC2CCCCC2)C2CCCC2)c1
- EC50 [8]: > 50 µM (active)

Structure (SMILES): CCc1ccc(N(C(=O)c2csnn2)C(C(=O)NC2CCCCC2)c2ccncc2)cc1 (stereo not drawn)
- IC50 [13]: > 43.8 µM (not active)
- IC50 [14]: > 43.8 µM (not active)

Structure (SMILES): N=C(NC(=O)c1ccccc1NC(=O)c1ccccc1)Nc1nc2ccccc2o1
- CC50 [7]: > 40 µM (active)

Structure (SMILES): Cc1ncc(CCl)c2c1OC(C)(C)OC2
- CC50 [7]: > 40 µM (active)

Reference: ChEMBL document CHEMBL1201862, “PubChem BioAssay data set” (2004)
